The values that follow come from patent US8129527B2, “Analogs of dehydrophenylahistins and their therapeutic use” (Nereus Pharmacuticals, Inc., priority 2006, dated 2012).

Read-outs that look alike come from different tables or passages of the source. Where only a bound is given, the exact number is not on record here.

One data set deals with HT-29 human colon cells. Kind of data set: Tumor cytotoxicity assay, resazurin fluorescence, 48 h (Example 6). The class given is cell-based. The settings on record: for EC50: Homo sapiens; for cytotoxic activity against HT-29 cells: in words.
The subject of another data set is HT-29 cells. Kind of data set: Additional cytotoxicity assays, resazurin (Table 3.1). The class given is cell-based, human. The settings on record: Table 3.1; for EC50: Homo sapiens, HT-29, read-out: EC50 (M) Mean. The protocol: 10× concentrated serial dilutions of the two compounds were prepared in appropriate culture medium for final concentrations ranging from 2.0×10^−5 M to 2.0×10^−10 M. Ten μl volumes of the 10× serial dilutions were added to the test wells in triplicate and the plates returned to the incubator for 48 hours.
Following 48 hours of drug exposure 10 μl of 0.2 mg/ml resazurin (obtained from Sigma-Aldrich Chemical Co.) in Mg^2+, Ca^2+ free PBS was added to each well and the plates were returned to the incubator for 3-4 hours. […] Resazurin dye without cells was used to determine the background, which was subtracted from the data for all experimental wells. The data were analyzed using Prism software (GraphPad Software).
Additional cytotoxicity assays were performed as described above under this example, using Resazurin fluorescence as an indicator of cell viability.

Where [1] appears, read: Table 11, replacement with the heteroaryl ring, proliferation of HT-29 cells, read-out: EC50.
[2] abbreviates: HT-29, Table 3, read-out: EC50 (nM) HT-29.
[3] abbreviates: Table 8, electron-donating group, proliferation of HT-29 cells, read-out: EC50.
Setting [4] is: HT-29, Table 5, synthetic potent dehydroPLH derivatives, read-out: EC50.

As for `Cc1[nH]cnc1/C=c1\[nH]c(=O)/c(=C/c2nc[nH]c2C(C)(C)C)[nH]c1=O` [KPU-36, tBu-ΔPLH-5-Me-4-im], the EC50 in the data set on HT-29 human colon cells (setting [1]) was determined as 2790 nM.
Consider `COc1cccc(/C=c2\[nH]c(=O)/c(=C/c3nc[nH]c3C(C)(C)C)[nH]c2=O)c1O` [KPU-23, tBu-ΔPLH-2-OH-3-OMe (o-vanillin)], for which the EC50 in the data set with HT-29 human colon cells (setting [2]) and with HT-29 human colon cells (setting [3]) was 5870 nM throughout.
Consider `Cc1ccsc1/C=c1\[nH]c(=O)/c(=C/c2nc[nH]c2C(C)(C)C)[nH]c1=O` [KPU-29, tBu-ΔPLH-3-Me-2-thienyl], for which the EC50 in the data set on HT-29 human colon cells (setting [2]) and in the data set with HT-29 human colon cells (setting [4]) was 44 nM each time. The “cytotoxic activity against HT-29 cells” value in the data set with HT-29 human colon cells is on record as “exhibited activity”.
On to `COc1cc(/C=c2\[nH]c(=O)/c(=C/c3nc[nH]c3C(C)(C)C)[nH]c2=O)cc(OC)c1` [KPU-16, tBu-ΔPLH-3,5-diOMe], for which the EC50 in the data set with HT-29 human colon cells (setting [2]) and in the data set on HT-29 human colon cells (setting [4]) was 42 nM throughout. In addition, the “cytotoxic activity against HT-29 cells” value in the data set with HT-29 human colon cells is given as “showed high activity”.
Turning to `COc1ccc(/C=c2\[nH]c(=O)/c(=C/c3nc[nH]c3C(C)(C)C)[nH]c2=O)c(O)c1` [KPU-58, tBu-ΔPLH-2-OH-4-OMe], the EC50 in the data set on HT-29 human colon cells (setting [3]) is greater than 20000 nM.
On the same count and under the same terms, with `COc1ccc(O)c(/C=c2\[nH]c(=O)/c(=C/c3nc[nH]c3C(C)(C)C)[nH]c2=O)c1` [KPU-54, tBu-ΔPLH-2-OH-5-OMe] the figure was greater than 20000 nM.
On to `COc1cc(OC)c(/C=c2\[nH]c(=O)/c(=C/c3nc[nH]c3C(C)(C)C)[nH]c2=O)c(OC)c1` [KPU-45, tBu-ΔPLH-2,4,6-TriOMe], for which the “cytotoxic activity against HT-29 cells” value in the data set with HT-29 human colon cells is reported as “also showed activity”.
As to `CC(C)(C)c1[nH]cnc1/C=c1\[nH]c(=O)/c(=C/c2ccc3c(c2)OCO3)[nH]c1=O` [KPU-22, tBu-ΔPLH-3,4-methylene-dioxy], the EC50 with HT-29 human colon cells (setting [2]) and with HT-29 human colon cells (setting [3]) was 82 nM in each case.
In the case of `Cn1cccc1/C=c1\[nH]c(=O)/c(=C/c2nc[nH]c2C(C)(C)C)[nH]c1=O` [KPU-63, tBu-ΔPLH-N-Me-2-pyrrole], in the data set with HT-29 human colon cells (setting [1]), the EC50 worked out at 105 nM.
In the case of `COc1ccc(O)c(/C=c2\[nH]c(=O)/c(=C/c3nc[nH]c3C(C)(C)C)[nH]c2=O)c1` [Compound 2405, tBu-delta-PLH-2-OH-5-OMe], in the data set on HT-29 cells, the EC50 is greater than 2e-05 M and the “% cytotox Mean” value was 25%.
The corresponding values for `CC(C)(C)c1[nH]cnc1/C=c1\[nH]c(=O)/c(=C/c2ccc3c(c2)OCO3)[nH]c1=O` [Compound 2372, tBu-delta-PLH-3,4-methylene-dioxy] are 8.73e-08 M and 84%.
For `Cc1[nH]cnc1/C=c1\[nH]c(=O)/c(=C/c2nc[nH]c2C(C)(C)C)[nH]c1=O` [Compound 2387, tBu-delta-PLH-5-Me-4-im], in the data set with HT-29 cells, the EC50 worked out at 2.35e-06 M and the “% cytotox Mean” value was determined as 84%.
Consider `CC(C)(C)c1[nH]cnc1/C=c1\[nH]c(=O)/c(=C/c2cc(Br)ccc2O)[nH]c1=O` [Compound 2407, tBu-delta-PLH-2-OH-5-Br], for which, in the data set on HT-29 cells, the EC50 is greater than 2e-05 M and the “% cytotox Mean” value is 13%.
The corresponding values for `CC(C)(C)c1[nH]cnc1/C=c1\[nH]c(=O)/c(=C/c2cc(Cl)ccc2O)[nH]c1=O` [Compound 2410, tBu-delta-PLH-2-OH-5-Cl] are greater than 2e-05 M and 37%.
The matching figures for `Cc1c(F)cccc1/C=c1\[nH]c(=O)/c(=C/c2nc[nH]c2C(C)(C)C)[nH]c1=O` [Compound 2435, tBu-delta-PLH-2-Me-3-F]: 3.34e-08 M and 86%.
As for `COc1cccc(/C=c2\[nH]c(=O)/c(=C/c3nc[nH]c3C(C)(C)C)[nH]c2=O)c1[N+](=O)[O-]` [Compound 2441, tBu-delta-PLH-2-NO2-3-OMe], in the data set on HT-29 cells, the EC50 was 6.63e-07 M and the “% cytotox Mean” value amounted to 83%.
The matching figures for `COc1ccc(F)c(/C=c2\[nH]c(=O)/c(=C/c3nc[nH]c3C(C)(C)C)[nH]c2=O)c1` [Compound 2431, tBu-delta-PLH-2-F5-OMe]: 2.03e-08 M and 88%.
Regarding `C=CC(C)(C)c1[nH]cnc1/C=c1\[nH]c(=O)/c(=C\c2ccc(OC)cc2)[nH]c1=O` [Compound 2357], in the data set on HT-29 cells, the EC50 is 8.25e-06 M and the “% cytotox Mean” value is on record as 63%.
